Columns and labels:
Assay type in all cases: functional, cell-based
A549 = test: Antiproliferative activity against human A549 cells assessed as inhibition of cell proliferation incubated for 48 hrs by CCK-8 assay; conditions: A549, 48 h
MCF7 = test: Antiproliferative activity against human MCF7 cells assessed as inhibition of cell proliferation incubated for 48 hrs by CCK-8 assay; conditions: MCF7, 48 h
HepG2 = test: Antiproliferative activity against human HepG2 cells assessed as inhibition of cell proliferation incubated for 48 hrs by CCK-8 assay; conditions: HepG2, 48 h
PANC-1 = test: Antiproliferative activity against human PANC-1 cells assessed as inhibition of cell proliferation incubated for 48 hrs by CCK-8 assay; conditions: PANC-1, 48 h
MIA PaCa-2 = test: Antiproliferative activity against human MIA PaCa-2 cells assessed as inhibition of cell proliferation incubated for 48 hrs by CCK-8 assay; conditions: MIA PaCa-2, 48 h

| Compound | IC50 (A549) [µM] | IC50 (MCF7) [µM] | IC50 (HepG2) [µM] | IC50 (PANC-1) [µM] | IC50 (MIA PaCa-2) [µM] |
| --- | --- | --- | --- | --- | --- |
| C=C1C(=O)[C@]23[C@H](OC(=O)CCC(=O)OCCCCOC(=O)c4ccc(N=C=S)cc4)[C@H]1CC[C@H]2[C@@]12CO[C@]3(O)[C@@H](O)[C@@H]1C(C)(C)CCC2=O | 26.6 | 8.08 |  |  |  |
| C=C1C(=O)[C@]23[C@H](OC(=O)CCCC(=O)OCCCOC(=O)c4ccc(N=C=S)cc4)[C@H]1CC[C@H]2[C@@]12CO[C@]3(O)[C@@H](O)[C@@H]1C(C)(C)CCC2=O | 23.2 | 8.43 |  |  |  |
| C=C1C(=O)[C@]23[C@H](OC(=O)CCCC(=O)OCCOC(=O)c4ccc(N=C=S)cc4)[C@H]1CC[C@H]2[C@@]12CO[C@]3(O)[C@@H](O)[C@@H]1C(C)(C)CCC2=O | 32.4 | 19.2 |  |  |  |
| O=C(O)c1ccc(N=C=S)cc1 | > 40 | > 40 | > 40 | > 40 | > 40 |
| C=C1C(=O)[C@]23[C@H](OC(=O)CCC(=O)OCCCOC(=O)c4ccc(N=C=S)cc4)[C@H]1CC[C@H]2[C@@]12CO[C@]3(O)[C@@H](O)[C@@H]1C(C)(C)CCC2=O | 16.3 | 10.4 |  |  |  |
| C=C1C(=O)[C@]23[C@H](OC(=O)CCCC(=O)OCCCCOC(=O)c4ccc(N=C=S)cc4)[C@H]1CC[C@H]2[C@@]12CO[C@]3(O)[C@@H](O)[C@@H]1C(C)(C)CC[C@@H]2OC(C)=O | > 40 | 9.99 |  |  |  |
| C=C1C(=O)[C@]23[C@H](OC(=O)CCCC(=O)OCc4ccc(-c5nc(=O)ss5)cc4)[C@H]1CC[C@H]2[C@@]12CO[C@]3(O)[C@@H](O)[C@@H]1C(C)(C)CC[C@@H]2O | > 40 | > 40 |  |  |  |
| C=C1C(=O)[C@]23[C@H](OC(=O)CCCC(=O)OCCOC(=O)c4ccc(N=C=S)cc4)[C@H]1CC[C@H]2[C@@]12CO[C@]3(O)[C@@H](O)[C@@H]1C(C)(C)CC[C@@H]2O | > 40 | > 40 |  |  |  |
| O=c1[nH]cc(F)c(=O)[nH]1 [FLUOROURACIL] | 11.9 | 25.1 |  |  |  |
| C=C1C(=O)[C@]23[C@H](OC(=O)CCC(=O)OCCCCOC(=O)c4ccc(N=C=S)cc4)[C@H]1CC[C@H]2[C@@]12CO[C@]3(O)[C@@H](O)[C@@H]1C(C)(C)CC[C@@H]2OC(C)=O | > 40 | 11.6 |  |  |  |
| C=C1C(=O)[C@]23[C@H](OC(=O)CCCC(=O)OCC#CCOC(=O)c4ccc(N=C=S)cc4)[C@H]1CC[C@H]2[C@@]12CO[C@]3(O)[C@@H](O)[C@@H]1C(C)(C)CC[C@@H]2OC(C)=O | > 40 | 12.8 |  |  |  |
| C=C1C(=O)[C@]23[C@H](OC(=O)CCC(=O)OCC#CCOC(=O)c4ccc(N=C=S)cc4)[C@H]1CC[C@H]2[C@@]12CO[C@]3(O)[C@@H](O)[C@@H]1C(C)(C)CC[C@@H]2O | > 40 | > 40 |  |  |  |
| C=C1C(=O)[C@]23[C@H](OC(=O)CCCC(=O)OCCCCOC(=O)c4ccc(N=C=S)cc4)[C@H]1CC[C@H]2[C@@]12CO[C@]3(O)[C@@H](O)[C@@H]1C(C)(C)CC[C@@H]2O | > 40 | > 40 |  |  |  |
| C=C1C(=O)[C@]23[C@H](OC(=O)CCCC(=O)OCCCOC(=O)c4ccc(N=C=S)cc4)[C@H]1CC[C@H]2[C@@]12CO[C@]3(O)[C@@H](O)[C@@H]1C(C)(C)CC[C@@H]2O | > 40 | > 40 |  |  |  |
| C=C1C(=O)[C@]23[C@H](O)[C@H]1CC[C@H]2[C@@]12CO[C@]3(O)[C@@H](O)[C@@H]1C(C)(C)CC[C@@H]2O [ORIDONIN] | 14.9 | 16 | 28.1 | 19.1 | 5.97 |
| C=C1C(=O)[C@]23[C@H](OC(=O)CCC(=O)OCCOC(=O)c4ccc(N=C=S)cc4)[C@H]1CC[C@H]2[C@@]12CO[C@]3(O)[C@@H](O)[C@@H]1C(C)(C)CC[C@@H]2OC(C)=O | 21.2 | 8.8 |  |  |  |
| C=C1C(=O)[C@]23[C@H](O)[C@H]1CC[C@H]2[C@@]12CO[C@]3(O)[C@@H](O)[C@@H]1C(C)(C)CCC2=O | 6.84 | 13.5 |  |  |  |
| C=C1C(=O)[C@]23[C@H](OC(=O)CCCC(=O)OCCCCOC(=O)c4ccc(N=C=S)cc4)[C@H]1CC[C@H]2[C@@]12CO[C@]3(O)[C@@H](O)[C@@H]1C(C)(C)CCC2=O | 24.4 | 6.93 | 8.69 | 18.8 | 11 |
| C=C1C(=O)[C@]23[C@H](OC(=O)CCCC(=O)OCCOC(=O)c4ccc(N=C=S)cc4)[C@H]1CC[C@H]2[C@@]12CO[C@]3(O)[C@@H](O)[C@@H]1C(C)(C)CC[C@@H]2OC(C)=O | > 40 | 8.7 |  |  |  |
| C=C1C(=O)[C@]23[C@H](OC(=O)CCCC(=O)OCC#CCOC(=O)c4ccc(N=C=S)cc4)[C@H]1CC[C@H]2[C@@]12CO[C@]3(O)[C@@H](O)[C@@H]1C(C)(C)CC[C@@H]2O | > 40 | > 40 |  |  |  |

| Compound | IC50 (A549) [µM] | IC50 (MCF7) [µM] | IC50 (HepG2) [µM] | IC50 (PANC-1) [µM] | IC50 (MIA PaCa-2) [µM] |
| --- | --- | --- | --- | --- | --- |
| C=C1C(=O)[C@]23[C@H](OC(=O)CCC(=O)Oc4ccc(-c5nc(=O)ss5)cc4)[C@H]1CC[C@H]2[C@@]12CO[C@]3(O)[C@@H](O)[C@@H]1C(C)(C)CC[C@@H]2O | 24.2 | > 40 |  |  |  |
| C=C1C(=O)[C@]23[C@H](OC(=O)CCCC(=O)OCC#CCOC(=O)c4ccc(N=C=S)cc4)[C@H]1CC[C@H]2[C@@]12CO[C@]3(O)[C@@H](O)[C@@H]1C(C)(C)CCC2=O | > 40 | 14 |  |  |  |
| C=C1C(=O)[C@]23[C@H](OC(=O)CCC(=O)OCCCCOC(=O)c4ccc(N=C=S)cc4)[C@H]1CC[C@H]2[C@@]12CO[C@]3(O)[C@@H](O)[C@@H]1C(C)(C)CC[C@@H]2O | > 40 | > 40 |  |  |  |
| C=C1C(=O)[C@]23[C@H](OC(=O)CCC(=O)OCC#CCOC(=O)c4ccc(N=C=S)cc4)[C@H]1CC[C@H]2[C@@]12CO[C@]3(O)[C@@H](O)[C@@H]1C(C)(C)CCC2=O | > 40 | 9.93 |  |  |  |
| C=C1C(=O)[C@]23[C@H](OC(=O)CCC(=O)OCCOC(=O)c4ccc(N=C=S)cc4)[C@H]1CC[C@H]2[C@@]12CO[C@]3(O)[C@@H](O)[C@@H]1C(C)(C)CC[C@@H]2O | > 40 | > 40 |  |  |  |
| C=C1C(=O)[C@]23[C@H](OC(=O)CCCC(=O)OCc4ccc(-c5nc(=O)ss5)cc4)[C@H]1CC[C@H]2[C@@]12CO[C@]3(O)[C@@H](O)[C@@H]1C(C)(C)CC[C@@H]2OC(C)=O | 14.3 | 13 |  |  |  |
| COc1cccc2c1C(=O)c1c(O)c3c(c(O)c1C2=O)C[C@@](O)(C(=O)CO)C[C@@H]3O[C@H]1C[C@H](N)[C@H](O)[C@H](C)O1 [DOXORUBICIN] |  |  |  | 1.19 | 1.16 |
| C=C1C(=O)[C@]23[C@H](OC(=O)CCC(=O)Oc4ccc(-c5nc(=O)ss5)cc4)[C@H]1CC[C@H]2[C@@]12CO[C@]3(O)[C@@H](O)[C@@H]1C(C)(C)CCC2=O | 18.3 | 19.1 |  |  |  |
| C=C1C(=O)[C@]23[C@H](OC(=O)CCC(=O)OCCCOC(=O)c4ccc(N=C=S)cc4)[C@H]1CC[C@H]2[C@@]12CO[C@]3(O)[C@@H](O)[C@@H]1C(C)(C)CC[C@@H]2O | 36.5 | > 40 |  |  |  |
| C=C1C(=O)[C@]23[C@H](OC(=O)CCC(=O)OCCOC(=O)c4ccc(N=C=S)cc4)[C@H]1CC[C@H]2[C@@]12CO[C@]3(O)[C@@H](O)[C@@H]1C(C)(C)CCC2=O | 32.2 | 16.7 |  |  |  |
| O=c1nc(-c2ccc(O)cc2)ss1 | > 40 | > 40 |  |  |  |
| C=C1C(=O)[C@]23[C@H](O)[C@H]1CC[C@H]2[C@@]12CO[C@@]3(O)[C@@H](O)[C@@H]1C(C)(C)CC[C@@H]2OC(C)=O | 5.47 | 8.76 |  |  |  |
| C=C1C(=O)[C@]23[C@H](OC(=O)CCC(=O)OCC#CCOC(=O)c4ccc(N=C=S)cc4)[C@H]1CC[C@H]2[C@@]12CO[C@]3(O)[C@@H](O)[C@@H]1C(C)(C)CC[C@@H]2OC(C)=O | > 40 | 4.49 | 7.65 | > 40 | 28.7 |
| C=C1C(=O)[C@]23[C@H](OC(=O)CCCC(=O)OCCCOC(=O)c4ccc(N=C=S)cc4)[C@H]1CC[C@H]2[C@@]12CO[C@]3(O)[C@@H](O)[C@@H]1C(C)(C)CC[C@@H]2OC(C)=O | > 40 | 6.98 | > 40 | 24.8 | 14.9 |
| C=C1C(=O)[C@]23[C@H](OC(=O)c4ccc(N=C=S)cc4)[C@H]1CC[C@H]2[C@@]12CO[C@]3(O)[C@@H](O)[C@@H]1C(C)(C)CCC2=O | 21.2 | 7.08 |  |  |  |
| C=C1C(=O)[C@]23[C@H](OC(=O)CCC(=O)OCCCOC(=O)c4ccc(N=C=S)cc4)[C@H]1CC[C@H]2[C@@]12CO[C@]3(O)[C@@H](O)[C@@H]1C(C)(C)CC[C@@H]2OC(C)=O | 24.9 | 8.45 |  |  |  |
| C=C1C(=O)[C@]23[C@H](OC(=O)c4ccc(N=C=S)cc4)[C@H]1CC[C@H]2[C@@]12CO[C@]3(O)[C@@H](O)[C@@H]1C(C)(C)CC[C@@H]2OC(C)=O | 28.1 | 13 |  |  |  |
| C=C1C(=O)[C@]23[C@H](OC(=O)CCCC(=O)OCc4ccc(-c5nc(=O)ss5)cc4)[C@H]1CC[C@H]2[C@@]12CO[C@]3(O)[C@@H](O)[C@@H]1C(C)(C)CCC2=O | 28.5 | > 40 |  |  |  |
| C=C1C(=O)[C@]23[C@H](OC(=O)CCC(=O)Oc4ccc(-c5nc(=O)ss5)cc4)[C@H]1CC[C@H]2[C@@]12CO[C@]3(O)[C@@H](O)[C@@H]1C(C)(C)CC[C@@H]2OC(C)=O | 15.2 | 15.4 |  |  |  |

From ChEMBL document CHEMBL6087397, “H2S-releasing oridonin derivatives with improved antitumor activity by inhibiting the PI3K/AKT pathway” (Bioorg Med Chem, 2024)
